The test system of the data set is GENE-TOX genotoxicity assays, various organisms and cells. As to the kind of experiment: GENE-TOX mutagenicity studies. The following applies: for call: Assay Type: In vivo carcinogenicity studies.
The mark [1] stands for this setting: Species/Cell Type: Chinese hamster lung (V79) cells, Assay Type: Forward gene mutation at the HPRT or ouabain locus, Assay Code: V79-, Evaluation Type: Evaluation A (Pre-1980).
[2] abbreviates: Species/Cell Type: Salmonella typhimurium (one or more of the five standard strains: TA98, TA100, TA1535, TA1537, and TA1538), Assay Type: Histidine reverse gene mutation, Ames assay, Assay Code: SAL+*, Activation: With metabolic activation, Evaluation Type: Evaluation A (Pre-1980).
The mark [3] stands for this setting: Species/Cell Type: Nonhuman, Assay Code: CCG-L, Evaluation Type: Evaluation A (Pre-1980).
Where [4] appears, read: Species/Cell Type: Nonhuman, Assay Code: CCG+, Evaluation Type: Evaluation A (Pre-1980).
Where [5] appears, read: Species/Cell Type: Escherichia coli polA (W3119 vs P3478), Assay Type: Rec-assay, DNA effects (bacterial DNA repair), Assay Code: RE1T, Evaluation Type: Evaluation A (Pre-1980).
The mark [6] stands for this setting: Species/Cell Type: Salmonella typhimurium (one or more of the five standard strains: TA98, TA100, TA1535, TA1537, and TA1538), Assay Type: Histidine reverse gene mutation, Ames assay, Assay Code: SALT, Evaluation Type: Evaluation A (Pre-1980).
[7] abbreviates: Species/Cell Type: Salmonella typhimurium (one or more of the five standard strains: TA98, TA100, TA1535, TA1537, and TA1538), Assay Type: Histidine reverse gene mutation, Ames assay, Assay Code: SAL+, Evaluation Type: Evaluation A (Pre-1980).
Setting [8] is: Species/Cell Type: Nonhuman, Assay Code: CCG+L, Evaluation Type: Evaluation A (Pre-1980).
The mark [9] stands for this setting: Species/Cell Type: Human, Assay Type: Sister-chromatid exchange (SCE) in vitro, Assay Code: SC1+D, Dose Response: With dose response, Evaluation Type: Evaluation B (Post-1980).

Activity calls are given as the source filed them. How the calls were made is not given here.

As to `O=C1CNCC(=O)N1C1CC1N1C(=O)CNCC1=O` (stereo not drawn), the mutagenic call under setting [1] is “inactive; negative”.
With `CC(C)CCC[C@@H](C)[C@H]1CC[C@H]2[C@@H]3CC=C4C[C@@H](O)CC[C@]4(C)[C@H]3CC[C@]12C`, the mutagenic call (Species/Cell Type: Syrian hamster embryo (SHE) cells, Assay Type: Cell transformation, clonal assay, Assay Code: CTC-, Evaluation Type: Evaluation A (Pre-1980)) is “inactive; negative”.
For the compound `O=NN1CCCC(O)C1` (stereo not drawn), under setting [2], the mutagenic call is “active; positive”.
For the compound `c1cc2cccc3c4cccc5cccc(c(c1)c23)c54`, the mutagenic call was “inactive; negative” (Species/Cell Type: Chinese hamster lung (V79) cells, Assay Type: Forward gene mutation, host-mediated assay, Assay Code: HMG-, Evaluation Type: Evaluation A (Pre-1980)) and “inactive; negative” (Species/Cell Type: Nonhuman, Assay Type: Sister-chromatid exchange (SCE) in vivo, Assay Code: SC3-, Evaluation Type: Evaluation A (Pre-1980)).
In the case of `Cc1cc(O)c2c(c1)C(=O)c1cc(O)cc(O[C@@H]3O[C@H](CO)[C@@H](O)[C@H](O)[C@H]3O)c1C2=O`, the mutagenic call under setting [2] is “active; positive”.
Regarding `C[CH2][Pb]([CH2]C)([CH2]C)[CH2]C`, for the setting “Species/Cell Type: Syrian hamster embryo (SA7/SHE) cells, Assay Type: Cell transformation, viral enhanced, Assay Code: CT7+, Evaluation Type: Evaluation A (Pre-1980)”, the mutagenic call was “active; positive”.
For `CCNc1nc(Cl)nc(NCC)n1` (tested in a mixture with another compound), the mutagenic call (Species/Cell Type: Saccharomyces cerevisiae, Assay Type: Mitotic recombination or gene conversion, Assay Code: YEC-, Evaluation Type: Evaluation A (Pre-1980)) is “inactive; negative”.
On to `CC1=NN(c2ccccc2)C(=O)C1`, for which the call under setting [3] is “inactive; negative”.
For the compound `CC[N+](=O)[O-]`, the mutagenic call (Species/Cell Type: Mammalian polychromatic erythrocytes, Assay Type: Micronucleus test, chromosome aberrations, Assay Code: MNTT, Evaluation Type: Evaluation A (Pre-1980)) is on record as “no conclusion”.
On to `C1=Cc2c3c1cccc3cc1ccc3ccccc3c21`, for which the mutagenic call (Species/Cell Type: Nonhuman, Assay Type: Sister-chromatid exchange (SCE) in vivo, Assay Code: SC3+D, Dose Response: With dose response, Evaluation Type: Evaluation B (Post-1980)) was “active; positive”.
Take `c1ccc(N=Nc2ccccc2)cc1`: the call under setting [4] is “active; positive”. Moreover, the mutagenic call reads like this: (Species/Cell Type: Nonhuman, Assay Type: Sister-chromatid exchange (SCE) in vitro, Assay Code: SC2+D, Dose Response: With dose response, Evaluation Type: Evaluation B (Post-1980)) “active; positive”; under setting [2], “active; positive”.
As to `O=C1CCCCCN1`, the mutagenic call (Species/Cell Type: Chinese hamster ovary (CHO) cells, Assay Type: Forward gene mutation at the HPRT locus, Assay Code: CHO-, Evaluation Type: Evaluation B (Post-1980)) is “inactive; negative”. The call (Species/Cell Type: Nonhuman, Assay Code: CCG-, Evaluation Type: Evaluation A (Pre-1980)) was “inactive; negative”.
For the compound `CCC(C)Br` (stereo not drawn), the mutagenic call under setting [5] was “no conclusion”.
Regarding `CC[C@@]1(O)C[C@H](O[C@H]2C[C@H](N(C)C)[C@H](O)[C@H](C)O2)c2c(cc3c(c2O)C(=O)c2c(O)cccc2C3=O)[C@H]1C(=O)OC`, under setting [6], the mutagenic call was “no conclusion”.
For `O=C(NO)c1ccccc1O`, under setting [7], the mutagenic call is “active; positive”.
For `COc1cc2c(c3oc(=O)c4c(c13)CCC4=O)[C@@H]1CCO[C@@H]1O2`, the mutagenic call (Species/Cell Type: Bacillus subtilis (H17 vs M45), Assay Type: Rec-assay, spot test, DNA effects (bacterial DNA repair), Assay Code: REWT, Evaluation Type: Evaluation A (Pre-1980)) is “no conclusion”; the mutagenic call (Species/Cell Type: Chinese hamster lung (V79) cells, Assay Type: Forward gene mutation at the HPRT or ouabain locus, Assay Code: V79+, Evaluation Type: Evaluation A (Pre-1980)) was “active; positive”; the mutagenic call (Species/Cell Type: Escherichia coli polA (W3110 vs P3478), Assay Type: Rec-assay, DNA effects (bacterial DNA repair), Assay Code: RE2-, Evaluation Type: Evaluation A (Pre-1980)) is “inactive; negative”; the mutagenic call under setting [5] was “no conclusion”; the mutagenic call (Species/Cell Type: Human diploid fibroblasts, Assay Type: Unscheduled DNA synthesis (UDS) in vitro, DNA effects, Assay Code: UDH-*, Activation: With metabolic activation, Evaluation Type: Evaluation A (Pre-1980)) was “inactive; negative”; the mutagenic call (Species/Cell Type: Nonhuman, Assay Type: Sister-chromatid exchange (SCE) in vitro, Assay Code: SC2+D*, Activation: With metabolic activation, Dose Response: With dose response, Evaluation Type: Evaluation B (Post-1980)) is “active; positive”. The mutagenic call was “inactive; negative” (Species/Cell Type: Rat primary hepatocytes, Assay Type: Unscheduled DNA synthesis (UDS) in vitro, DNA effects, Assay Code: UDP-, Evaluation Type: Evaluation A (Pre-1980)); “inactive; negative” (Species/Cell Type: Saccharomyces cerevisiae, Assay Type: Mitotic recombination or gene conversion, Assay Code: YEH-, Evaluation Type: Evaluation A (Pre-1980)); “no conclusion” under setting [6]; “inactive; negative” (Species/Cell Type: Salmonella typhimurium, Assay Type: Forward and reverse gene mutation, host-mediated assay, Assay Code: HMA-, Evaluation Type: Evaluation A (Pre-1980)); “active; positive” (Species/Cell Type: Syrian hamster embryo (SHE) cells, Assay Type: Cell transformation, clonal assay, Assay Code: CTC+, Evaluation Type: Evaluation A (Pre-1980)). Also, the call under setting [8] was “active; positive”.
Turning to `CC1=C(/C=C/C(C)=C/C=C/C(C)=C/COc2ccccc2)C(C)(C)CCC1`, under setting [9], the mutagenic call is “active; positive”.
In the case of `C/[N+]([O-])=N/CO[C@@H]1O[C@H](CO)[C@@H](O)[C@H](O)[C@H]1O`, the mutagenic call reads like this: (Species/Cell Type: Drosophila melanogaster, Assay Type: Sex-linked recessive lethal gene mutation, Assay Code: SRLT, Evaluation Type: Evaluation A (Pre-1980)) “no conclusion”; (Species/Cell Type: Salmonella typhimurium (one or more of the five standard strains: TA98, TA100, TA1535, TA1537, and TA1538), Assay Type: Histidine reverse gene mutation, Ames assay, Assay Code: SAL-, Evaluation Type: Evaluation A (Pre-1980)) “inactive; negative”; (Species/Cell Type: Salmonella typhimurium, Assay Type: Forward and reverse gene mutation, host-mediated assay, Assay Code: HMA+, Evaluation Type: Evaluation A (Pre-1980)) “active; positive”. Further, the call under setting [4] was “active; positive”.
Consider `CC(=O)c1cc([N+](=O)[O-])c[nH]1`, for which the mutagenic call under setting [6] was “no conclusion”.
Take `O[C@H]1[C@H](O)[C@@H](O)c2c(cc3ccc4cccc5ccc2c3c45)[C@@H]1O`: the mutagenic call (Species/Cell Type: Chinese hamster lung (V79) cells, Assay Type: Forward gene mutation at the HPRT or ouabain locus, Assay Code: V79-*, Activation: With metabolic activation, Evaluation Type: Evaluation A (Pre-1980)) was “inactive; negative”.
Take `C1=C[C@H]2O[C@H]2c2c1cc1ccc3cccc4ccc2c1c34`: the mutagenic call by setting is: under setting [1], “inactive; negative”; under setting [7], “active; positive”. Further, the call (Species/Cell Type: Nonhuman, Assay Code: CCGT, Evaluation Type: Evaluation A (Pre-1980)) is recorded as “no conclusion”.
As to `NNC(=O)NC(=O)NN`, the mutagenic call (Species/Cell Type: Escherichia coli WP2, Assay Type: Tryptophan reverse gene mutation, Assay Code: WP2+, Evaluation Type: Evaluation A (Pre-1980)) was “active; positive”.
On to `N.N.[Cl-].[Cl-].[Cl-].[Cl-].[Pt+4]`, for which the mutagenic call (Species/Cell Type: Nonhuman, Assay Type: Sister-chromatid exchange (SCE) in vitro, Assay Code: SC2+, Evaluation Type: Evaluation B (Post-1980)) was “active; positive”.
For `CCCOc1nc2c(c(=O)n(C)c(=O)n2C)n1C`, the mutagenic call (Species/Cell Type: Allium cepa, Assay Type: Chromosome aberrations, Assay Code: ALC+D, Dose Response: With dose response, Evaluation Type: Evaluation A (Pre-1980)) is “active; positive”.
With `ClCC1OC(CCl)OC(CCl)O1` (stereo not drawn), the mutagenic call under setting [7] was “active; positive”.
With `ClCc1ccccn1`, the call under setting [3] is “inactive; negative”.
Take `Nc1ncnc2c1ncn2[C@@H]1O[C@H](CO)C[C@H]1O`: the mutagenic call is, setting by setting: (Species/Cell Type: Fischer rat embryo (RLV/1706) cells, Assay Type: Cell transformation, viral enhanced, Assay Code: CTR-, Evaluation Type: Evaluation A (Pre-1980)) “inactive; negative”; (Species/Cell Type: Nonhuman, Assay Type: Sister-chromatid exchange (SCE) in vitro, Assay Code: SC2T, Evaluation Type: Evaluation B (Post-1980)) “no conclusion”.
Consider `O=c1[nH]c(=O)n([C@H]2C[C@H](O)[C@@H](CO)O2)cc1/C=C/Cl`, for which the mutagenic call under setting [9] was “active; positive”.
Regarding `CCN(CCCC(=O)O)N=O`, the mutagenic call under setting [7] was “active; positive”.
For `COc1ccc(C(=O)/C(Br)=C\C(=O)O)cc1`, the mutagenic call (Species/Cell Type: Mammalian polychromatic erythrocytes, Assay Type: Micronucleus test, chromosome aberrations, Assay Code: MNT+, Evaluation Type: Evaluation A (Pre-1980)) is “active; positive”. Also, the call under setting [8] was “active; positive”.
For the compound `CC(=O)[O-].CC(=O)[O-].CC(=O)[O-].CC(=O)[O-].[Pb+2]`, under setting [4], the call is “active; positive”.

The record behind these values is PubChem BioAssay AID1259408 (Genetic Toxicology Data Bank (GENE-TOX), 2018).
